Values quoted from earlier work, collected in US11260055B2, “Oral pharmaceutical composition of lurasidone and preparation thereof” (PIRAMAL PHARMA LIMITED, priority 2017, dated 2022).

Conditions: in water

Question: With `O=C1[C@@H]2[C@H]3CC[C@H](C3)[C@@H]2C(=O)N1C[C@@H]1CCCC[C@H]1CN1CCN(c2nsc3ccccc23)CC1` [Lurasidone] as the compound, how does the Solubility read?
Answer: poor water solubility
